Reference: ChEMBL document CHEMBL1201862, “PubChem BioAssay data set” (2004)
Activity calls are given as the source filed them. Cut-off read from the data, not from the text of the source, for most assays here: actives have a measured EC50 and inactives only a lower limit.

Experiments:
[1] = test system: Vero; assay: Vero cell cytotoxicity, cytotoxicity control for flavivirus capping enzyme inhibitors (AID 588742); type: functional; conditions: Chlorocebus sabaeus
[2] = molecular target: Genome polyprotein (dengue virus type 2, UniProt P29990); assay: Dengue-2 NS5 methyltransferase inhibitors, primary screen, biochemical, confirmation dose response (AID 588689); type: functional
[3] = C. albicans growth with fluconazole, confirmation, fluorescence, retest (AID 2467); type: functional, cell-based
[4] = NIH-3T3 fibroblast cytotoxicity, dose response, cytotoxicity control, cell-based, fluorescence, Alamar Blue, secondary assay (AID 2327); type: functional;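 note: NIH-3T3 mouse fibroblasts cultured with fluconazole at 8 µg/mL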
[5] = molecular target: Serine/threonine-protein phosphatase (Candida dubliniensis (strain CD36 / CBS 7987 / NCPF 3949 / NRRLY-17841) (Yeast), UniProt B9W6M3); assay: calcineurin pathway inhibitors in yeast reporter, dose response, S. cerevisiae, CDRE-lacZ, luminescence, secondary (AID 2388); type: functional, cell-based;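 note: yeast reporter cells carrying a calcineurin-responsive lacZ construct stimulated with calcium chloride; luminescent beta-galactosidase reporter signal in whole cells rather than isolated phosphatase activity; potency for inhibition where a drop in reporter signal means calcineurin blockade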
[6] = molecular target: ATP-dependent molecular chaperone HSP82 (Candida albicans (strain WO-1) (Yeast), UniProt C4YTQ8); assay: loss of DOC-induced GRE-beta-galactosidase reporter signal, dose response, Hsp90 inhibitor project, S. cerevisiae, luminescence (AID 2400); type: functional, cell-based;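 note: beta-galactosidase luminescence from glucocorticoid response element reporter as proxy for Hsp90 function; inhibitor potency where signal loss means Hsp90 inhibition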
[7] = molecular target: T1, Calpain-2 catalytic subunit (Sus scrofa, UniProt P43367); assay: pig calpain II inhibitor potency, dose response, biochemical, fluorogenic peptide substrate (AID 1420); type: functional
T1 sequence (P43367 whole entry): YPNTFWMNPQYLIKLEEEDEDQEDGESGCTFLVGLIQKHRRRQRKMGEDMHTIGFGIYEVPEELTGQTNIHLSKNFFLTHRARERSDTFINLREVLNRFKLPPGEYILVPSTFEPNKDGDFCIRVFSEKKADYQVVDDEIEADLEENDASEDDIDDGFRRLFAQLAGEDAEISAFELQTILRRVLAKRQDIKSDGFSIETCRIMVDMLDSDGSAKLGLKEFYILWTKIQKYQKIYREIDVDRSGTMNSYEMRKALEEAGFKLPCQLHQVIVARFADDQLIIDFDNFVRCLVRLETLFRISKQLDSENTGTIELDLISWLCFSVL

[8] = test system: Streptococcus sp. 'group A'; assay: growth inhibition of control SK(-) GAS strain, dose response, counter-screen for streptokinase expression inhibitor project, luminescence, kanamycin, BacTiterGlo, confirmation (AID 1900); type: functional, organism-based
[9] = test system: Streptococcus; assay: Group A Streptococcus viability loss, dose response, counter-screen for streptokinase expression inhibitor project, luminescence, BacTiterGlo (AID 1915); type: functional, organism-based;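 note: potency for reduction of bacterial viability or growth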
[10] = molecular target: Heat shock protein HSP 90-alpha (Homo sapiens, UniProt P07900); type: functional, organism-based
[11] = test system: HEK293; assay: cells; type: functional, cell-based; conditions: Homo sapiens
[12] = molecular target: T2, Rac GTPase-activating protein 1 (Homo sapiens, UniProt Q9H0H5); assay: MgcRacGAP GTPase-activating activity inhibitors, confirmation, biochemical, ADP Hunter fluorescence, primary and confirmatory (AID 624330); type: functional
T2 sequence (Q9H0H5 whole entry): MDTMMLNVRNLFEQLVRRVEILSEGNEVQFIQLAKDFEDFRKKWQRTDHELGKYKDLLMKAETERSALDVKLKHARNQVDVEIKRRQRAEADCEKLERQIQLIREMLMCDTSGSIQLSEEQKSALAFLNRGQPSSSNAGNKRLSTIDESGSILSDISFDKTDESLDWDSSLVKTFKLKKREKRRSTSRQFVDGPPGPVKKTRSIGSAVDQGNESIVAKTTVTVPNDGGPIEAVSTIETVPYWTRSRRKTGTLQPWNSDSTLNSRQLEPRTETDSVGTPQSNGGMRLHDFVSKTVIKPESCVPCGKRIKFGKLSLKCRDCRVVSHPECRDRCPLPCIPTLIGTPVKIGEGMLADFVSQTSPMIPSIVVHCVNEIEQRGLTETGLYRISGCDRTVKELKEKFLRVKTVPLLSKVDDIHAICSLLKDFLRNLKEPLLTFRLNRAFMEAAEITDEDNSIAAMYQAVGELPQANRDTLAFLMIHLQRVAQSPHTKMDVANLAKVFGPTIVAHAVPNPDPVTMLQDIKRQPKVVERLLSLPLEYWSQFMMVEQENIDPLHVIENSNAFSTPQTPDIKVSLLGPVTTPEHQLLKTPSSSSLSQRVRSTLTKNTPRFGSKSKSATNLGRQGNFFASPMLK

[13] = molecular target: Nuclear receptor subfamily 0 group B member 1 (Homo sapiens, UniProt P51843); assay: Luminescence-based cell-based high throughput dose response assay for inhibitors of the orphan nuclear receptor subfamily 0, group B, member 1 (DAX1; NR0B1). [Related pubchem assays (depositor defined):AID504766, AID504790]; type: functional
[14] = molecular target: T3, Acyl-homoserine lactone acylase PvdQ (Pseudomonas aeruginosa (strain LESB58), UniProt Q9I194); assay: P. aeruginosa PvdQ acylase inhibitors, dose response, biochemical, fluorescence, plate reader and imaging, cherry-picks (AID 493231)
T3 sequence (Q9I194 whole entry): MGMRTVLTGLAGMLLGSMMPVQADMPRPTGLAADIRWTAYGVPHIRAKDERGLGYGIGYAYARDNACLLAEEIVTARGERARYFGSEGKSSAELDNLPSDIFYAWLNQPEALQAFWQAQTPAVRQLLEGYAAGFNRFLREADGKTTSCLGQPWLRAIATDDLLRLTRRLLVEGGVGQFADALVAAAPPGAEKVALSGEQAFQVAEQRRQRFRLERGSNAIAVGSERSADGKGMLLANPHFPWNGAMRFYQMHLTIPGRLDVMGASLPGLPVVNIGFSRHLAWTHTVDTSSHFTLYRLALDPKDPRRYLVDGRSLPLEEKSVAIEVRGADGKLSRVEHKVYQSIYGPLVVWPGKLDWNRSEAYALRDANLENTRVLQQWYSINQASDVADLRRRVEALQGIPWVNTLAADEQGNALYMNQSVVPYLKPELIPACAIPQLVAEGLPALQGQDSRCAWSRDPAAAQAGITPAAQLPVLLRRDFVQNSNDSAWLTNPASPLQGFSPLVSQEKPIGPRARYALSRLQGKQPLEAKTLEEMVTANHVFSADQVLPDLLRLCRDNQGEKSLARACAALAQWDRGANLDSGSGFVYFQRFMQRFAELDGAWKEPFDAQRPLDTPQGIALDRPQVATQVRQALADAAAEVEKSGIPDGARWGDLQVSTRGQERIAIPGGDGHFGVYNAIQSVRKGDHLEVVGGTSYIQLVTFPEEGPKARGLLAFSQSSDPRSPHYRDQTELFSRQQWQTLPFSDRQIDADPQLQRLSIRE

[15] = Luminescence Cell-Based Dose Confirmation to Identify Activators of 5'UTR Stem-Loop Driven Alpha-Synuclein mRNA Translation in H4 Neuroglioblastoma Cells. [Related pubchem assays: 1829 (Project Summary), 1814 (Primary HTS)]; type: functional
[16] = Luminescence Cell-Based Dose Response to Identify Activators of Luciferase Translation or Activity in H4-C Neuroglioblastoma Cells. [Related pubchem assays: 1829 (Project Summary), 1814 (Primary HTS)]; type: functional
[17] = Luminescence Cell-Based Dose Response HTS to Identify Activators of Luciferase Translation or Activity in H4 […] Cells. [Related pubchem assays: 1829 (Project Summary), 1814 (Primary HTS)]; type: functional
[18] = Luminescence Cell-Based Dose Confirmation HTS to Identify Activators of 5'UTR Stem-Loop Driven Alpha-Synuclein mRNA Translation in H4 Neuroglioblastoma Cells. [Related pubchem assays: 1829 (Project Summary), 1814 (Primary HTS)]; type: functional
[19] = test system: H4; assay: Luminescence Cell-Based Dose Response HTS to Identify Activators of 5'UTR Stem-Loop Driven Prion Protein mRNA Translation in H4 Neuroglioblastoma Cells. [Related pubchem assays: 1829 (Project Summary), 1814 (Primary HTS)]; type: functional; conditions: Homo sapiens
[20] = Luminescence Cell-Based Dose Response to Identify Activators of 5'UTR Stem-Loop Driven Prion Protein mRNA Translation in H4-C Neuroglioblastoma Cells. [Related pubchem assays: 1829 (Project Summary), 1814 (Primary HTS)]; type: functional
[21] = molecular target: T4, Hexokinase HKDC1 (Homo sapiens, UniProt Q2TB90); assay: SAR analysis of small molecule inhibitors of hexokinase domain containing I (HKDC1). [Related pubchem assays (depositor defined):AID493160, AID493190]; type: functional
T4 sequence (Q2TB90 whole entry): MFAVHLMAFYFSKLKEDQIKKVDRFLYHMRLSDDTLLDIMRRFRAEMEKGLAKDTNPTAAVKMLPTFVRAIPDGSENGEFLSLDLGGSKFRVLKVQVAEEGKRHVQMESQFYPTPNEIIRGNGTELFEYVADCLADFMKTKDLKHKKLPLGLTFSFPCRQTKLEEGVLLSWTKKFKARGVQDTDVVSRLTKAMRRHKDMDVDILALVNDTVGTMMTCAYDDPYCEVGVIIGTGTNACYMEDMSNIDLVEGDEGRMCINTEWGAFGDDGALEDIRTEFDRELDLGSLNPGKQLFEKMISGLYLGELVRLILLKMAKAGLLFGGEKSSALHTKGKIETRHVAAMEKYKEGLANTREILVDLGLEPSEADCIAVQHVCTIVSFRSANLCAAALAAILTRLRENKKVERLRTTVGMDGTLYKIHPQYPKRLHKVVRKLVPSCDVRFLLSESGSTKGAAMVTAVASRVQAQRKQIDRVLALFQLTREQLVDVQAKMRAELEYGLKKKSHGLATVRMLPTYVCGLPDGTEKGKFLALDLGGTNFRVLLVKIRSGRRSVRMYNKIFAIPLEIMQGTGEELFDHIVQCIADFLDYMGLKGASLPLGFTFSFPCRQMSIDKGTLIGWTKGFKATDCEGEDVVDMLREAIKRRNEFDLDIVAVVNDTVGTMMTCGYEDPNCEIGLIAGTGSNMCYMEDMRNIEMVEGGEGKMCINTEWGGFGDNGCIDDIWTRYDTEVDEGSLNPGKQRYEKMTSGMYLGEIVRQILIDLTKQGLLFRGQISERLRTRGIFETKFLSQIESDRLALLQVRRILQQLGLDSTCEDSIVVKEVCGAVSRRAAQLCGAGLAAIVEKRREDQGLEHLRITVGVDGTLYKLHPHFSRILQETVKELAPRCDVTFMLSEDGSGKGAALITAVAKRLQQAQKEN

[22] = molecular target: Hexokinase-1 (Homo sapiens, UniProt P19367); assay: SAR analysis of small molecule inhibitors of hexokinase domain containing I (HKDC1) in the hexokinase 1 selectivity assay. [Related pubchem assays (depositor defined):AID493160, AID493190]; type: functional
Hexokinase-1, sequence (P19367 whole entry, the tested form may be a part): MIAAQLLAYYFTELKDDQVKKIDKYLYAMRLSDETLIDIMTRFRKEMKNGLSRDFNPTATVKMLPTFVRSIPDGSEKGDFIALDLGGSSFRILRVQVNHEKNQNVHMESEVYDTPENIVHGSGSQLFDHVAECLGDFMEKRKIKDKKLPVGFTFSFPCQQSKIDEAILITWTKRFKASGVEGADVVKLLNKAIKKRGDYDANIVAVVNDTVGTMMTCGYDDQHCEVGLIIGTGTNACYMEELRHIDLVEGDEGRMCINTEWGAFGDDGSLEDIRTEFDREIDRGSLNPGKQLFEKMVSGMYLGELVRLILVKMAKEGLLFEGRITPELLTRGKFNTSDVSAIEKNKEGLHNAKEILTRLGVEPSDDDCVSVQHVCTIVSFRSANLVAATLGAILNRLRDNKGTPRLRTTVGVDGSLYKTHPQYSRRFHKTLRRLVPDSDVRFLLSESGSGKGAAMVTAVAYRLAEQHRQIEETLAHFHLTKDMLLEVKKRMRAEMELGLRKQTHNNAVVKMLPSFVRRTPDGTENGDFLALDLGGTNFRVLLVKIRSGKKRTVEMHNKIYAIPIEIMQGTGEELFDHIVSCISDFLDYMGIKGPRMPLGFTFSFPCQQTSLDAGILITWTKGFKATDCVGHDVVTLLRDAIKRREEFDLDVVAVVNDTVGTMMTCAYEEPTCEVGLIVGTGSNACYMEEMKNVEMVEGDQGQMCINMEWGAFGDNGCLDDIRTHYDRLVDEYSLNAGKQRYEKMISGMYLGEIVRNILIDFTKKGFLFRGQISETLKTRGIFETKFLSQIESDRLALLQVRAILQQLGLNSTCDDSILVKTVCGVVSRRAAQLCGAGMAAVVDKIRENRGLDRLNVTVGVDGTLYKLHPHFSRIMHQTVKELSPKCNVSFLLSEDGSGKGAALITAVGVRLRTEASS

ATP-dependent molecular chaperone HSP82, sequence (C4YTQ8 whole entry): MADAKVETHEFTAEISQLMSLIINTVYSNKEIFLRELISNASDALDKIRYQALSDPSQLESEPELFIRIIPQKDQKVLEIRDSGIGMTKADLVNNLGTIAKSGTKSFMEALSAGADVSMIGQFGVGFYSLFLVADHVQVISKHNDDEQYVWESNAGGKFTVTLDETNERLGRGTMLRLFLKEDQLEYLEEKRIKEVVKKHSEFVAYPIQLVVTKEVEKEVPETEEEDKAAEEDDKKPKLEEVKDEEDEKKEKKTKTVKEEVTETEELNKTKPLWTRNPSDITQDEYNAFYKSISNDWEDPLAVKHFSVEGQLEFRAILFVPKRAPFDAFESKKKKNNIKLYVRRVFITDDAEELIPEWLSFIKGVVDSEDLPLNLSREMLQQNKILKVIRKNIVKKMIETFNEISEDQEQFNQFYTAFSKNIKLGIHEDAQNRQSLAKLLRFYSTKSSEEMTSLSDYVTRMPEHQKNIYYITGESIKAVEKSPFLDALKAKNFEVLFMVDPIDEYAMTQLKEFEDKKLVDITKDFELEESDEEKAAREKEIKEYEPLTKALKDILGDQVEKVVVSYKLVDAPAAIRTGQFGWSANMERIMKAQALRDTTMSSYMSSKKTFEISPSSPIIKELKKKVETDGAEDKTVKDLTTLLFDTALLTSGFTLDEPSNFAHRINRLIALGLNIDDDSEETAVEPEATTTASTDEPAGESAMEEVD
Genome polyprotein, sequence (P29990 2492-3391 limits assumed): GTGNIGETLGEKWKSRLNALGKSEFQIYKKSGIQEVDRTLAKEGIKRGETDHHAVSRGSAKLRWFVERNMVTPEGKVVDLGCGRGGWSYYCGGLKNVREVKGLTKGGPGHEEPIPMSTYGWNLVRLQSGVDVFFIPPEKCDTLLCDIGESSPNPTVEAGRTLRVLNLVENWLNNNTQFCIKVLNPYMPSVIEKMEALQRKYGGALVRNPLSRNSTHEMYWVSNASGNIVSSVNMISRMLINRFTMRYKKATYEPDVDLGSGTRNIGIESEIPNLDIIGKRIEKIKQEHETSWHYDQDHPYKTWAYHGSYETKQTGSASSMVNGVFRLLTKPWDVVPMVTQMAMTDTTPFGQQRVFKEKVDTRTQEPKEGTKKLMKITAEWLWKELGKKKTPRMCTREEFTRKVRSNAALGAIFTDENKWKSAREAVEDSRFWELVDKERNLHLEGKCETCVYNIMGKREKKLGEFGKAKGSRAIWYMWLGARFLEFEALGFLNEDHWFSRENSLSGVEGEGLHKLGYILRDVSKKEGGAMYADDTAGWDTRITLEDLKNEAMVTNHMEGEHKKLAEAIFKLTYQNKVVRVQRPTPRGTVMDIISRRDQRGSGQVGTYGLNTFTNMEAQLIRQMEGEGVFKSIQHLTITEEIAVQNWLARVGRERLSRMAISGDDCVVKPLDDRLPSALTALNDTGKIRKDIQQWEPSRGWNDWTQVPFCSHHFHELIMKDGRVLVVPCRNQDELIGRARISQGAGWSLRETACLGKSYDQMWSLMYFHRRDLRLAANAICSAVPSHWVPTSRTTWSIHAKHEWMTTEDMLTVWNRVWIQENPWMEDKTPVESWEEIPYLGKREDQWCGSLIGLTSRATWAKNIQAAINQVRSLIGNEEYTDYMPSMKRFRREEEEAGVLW
Serine/threonine-protein phosphatase, sequence (B9W6M3 whole entry): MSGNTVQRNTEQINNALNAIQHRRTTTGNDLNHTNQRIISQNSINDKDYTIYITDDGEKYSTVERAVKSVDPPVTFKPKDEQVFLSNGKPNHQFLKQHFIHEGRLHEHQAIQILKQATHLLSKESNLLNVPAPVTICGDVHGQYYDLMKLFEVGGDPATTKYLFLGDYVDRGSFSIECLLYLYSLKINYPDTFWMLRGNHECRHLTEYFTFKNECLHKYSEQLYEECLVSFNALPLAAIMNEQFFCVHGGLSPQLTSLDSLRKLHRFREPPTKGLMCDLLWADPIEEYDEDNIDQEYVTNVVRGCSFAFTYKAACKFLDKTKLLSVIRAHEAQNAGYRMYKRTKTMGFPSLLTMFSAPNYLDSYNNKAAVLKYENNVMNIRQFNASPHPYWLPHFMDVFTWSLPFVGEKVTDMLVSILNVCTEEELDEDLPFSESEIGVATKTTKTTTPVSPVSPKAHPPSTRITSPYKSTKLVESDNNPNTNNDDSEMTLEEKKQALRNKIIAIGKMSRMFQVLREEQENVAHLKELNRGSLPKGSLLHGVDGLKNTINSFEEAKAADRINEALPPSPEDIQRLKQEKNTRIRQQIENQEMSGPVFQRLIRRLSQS
Nuclear receptor subfamily 0 group B member 1, sequence (P51843 whole entry): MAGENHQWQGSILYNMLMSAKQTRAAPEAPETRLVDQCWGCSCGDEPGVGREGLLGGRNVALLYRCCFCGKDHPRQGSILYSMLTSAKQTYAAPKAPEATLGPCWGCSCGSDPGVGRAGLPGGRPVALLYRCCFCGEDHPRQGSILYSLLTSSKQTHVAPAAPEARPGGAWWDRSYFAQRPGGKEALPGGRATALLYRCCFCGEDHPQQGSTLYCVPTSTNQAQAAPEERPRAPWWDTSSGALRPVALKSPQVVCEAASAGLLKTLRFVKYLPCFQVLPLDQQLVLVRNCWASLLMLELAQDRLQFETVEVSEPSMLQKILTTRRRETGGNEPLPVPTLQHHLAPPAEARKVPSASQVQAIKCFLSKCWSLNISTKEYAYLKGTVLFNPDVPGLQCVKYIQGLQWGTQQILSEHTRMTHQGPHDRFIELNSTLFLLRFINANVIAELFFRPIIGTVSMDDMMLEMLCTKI

CSc1ccc(-c2sc(Nc3cccc4ccccc34)n[n+]2-c2ccccc2)cc1
CC50 [1]: > 40 µM (active)
IC50 [2]: 44.5 µM (active)

Clc1ccc2c(c1)C(c1cccs1)=NNC(c1cccnc1)=N2
EC50 [3]: 0.101 µM (active)
EC50 [4]: > 150 µM (inactive)
EC50 [5]: > 180 µM (inactive)
EC50 [6]: > 150 µM (inactive)

O=[N+]([O-])c1cc(Cl)c(O)c2ncccc12
EC50 [3]: 0.055 µM (active)
EC50 [4]: 15.5 µM (active)
IC50 [7]: > 50 µM (not active)
EC50 [8]: 1.33 µM (active)
EC50 [9]: 5.77 µM (active)
EC50 [5]: > 180 µM (inactive)
EC50 [6]: 1.48 µM (active)
AC50 [10]: 1.86 µM (active)

CCOc1ccc(CNC2CCCc3ccccc32)cc1 (stereo not given)
IC50 [11]: > 67.5 µM (inactive)
IC50 [12]: 202 µM (active)
IC50 [13]: > 67.5 µM (inactive)
AC50 [14]: 12.3 µM (active)

Cc1ccc(-c2nn(-c3ccccc3)cc2C=C2C(=O)CC(C)(C)CC2=O)cc1
EC50 [15]: 0.555 µM (active)
EC50 [16]: 1.35 µM (active)
EC50 [17]: 0.454 µM (active)
EC50 [18]: > 120 µM (not active)
CC50 [1]: 19.1 µM (active)
IC50 [2]: 44.8 µM (active)
EC50 [19]: > 120 µM (not active)
EC50 [20]: > 12 µM (not active)

O=C(Nc1nnc(SCc2ccccc2)s1)c1ccc2[nH]cnc2c1
IC50 [21]: > 80 µM (inactive)
IC50 [22]: > 80 µM (inactive)

Cc1cc2nnc(SCC(=O)Nc3ccccc3)n2c2ccccc12
IC50 [21]: > 80 µM (inactive)
IC50 [22]: > 80 µM (inactive)
